These results are taken from patent US9938299B2, “Glycosidase inhibitors and uses thereof” (MERCK SHARP & DOHME CORP., priority 2012, dated 2018).

The first experiment has as its target T1, human O-GlcNAcase (Homo sapiens, UniProt O60502).
T1 sequence (O60502 1-916): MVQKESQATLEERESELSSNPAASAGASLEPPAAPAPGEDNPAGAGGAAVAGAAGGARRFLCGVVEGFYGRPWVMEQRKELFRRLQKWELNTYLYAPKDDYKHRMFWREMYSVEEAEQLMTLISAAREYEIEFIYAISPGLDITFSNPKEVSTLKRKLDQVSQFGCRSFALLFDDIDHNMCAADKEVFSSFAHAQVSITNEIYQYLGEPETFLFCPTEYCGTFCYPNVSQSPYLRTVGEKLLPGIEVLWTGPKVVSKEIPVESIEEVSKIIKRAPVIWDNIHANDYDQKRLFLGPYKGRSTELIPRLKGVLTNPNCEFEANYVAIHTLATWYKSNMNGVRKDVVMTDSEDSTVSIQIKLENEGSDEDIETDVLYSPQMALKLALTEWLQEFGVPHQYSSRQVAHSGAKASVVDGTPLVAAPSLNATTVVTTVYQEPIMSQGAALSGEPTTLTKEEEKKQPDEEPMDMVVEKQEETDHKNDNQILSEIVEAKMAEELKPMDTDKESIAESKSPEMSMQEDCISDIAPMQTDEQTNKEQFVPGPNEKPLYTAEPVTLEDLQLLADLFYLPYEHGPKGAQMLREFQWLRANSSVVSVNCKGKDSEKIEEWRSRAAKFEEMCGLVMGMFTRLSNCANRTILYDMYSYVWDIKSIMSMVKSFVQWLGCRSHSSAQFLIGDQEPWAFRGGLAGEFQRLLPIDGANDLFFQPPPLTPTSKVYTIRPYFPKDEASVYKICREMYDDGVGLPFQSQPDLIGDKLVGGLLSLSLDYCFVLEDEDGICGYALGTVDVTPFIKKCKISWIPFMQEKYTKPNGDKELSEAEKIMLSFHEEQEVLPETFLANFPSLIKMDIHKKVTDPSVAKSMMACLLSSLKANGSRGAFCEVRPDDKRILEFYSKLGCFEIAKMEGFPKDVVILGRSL
As to the kind of experiment: Determination of KI values for inhibition of O-GlcNAcase activity (fluorogenic 4-methylumbelliferyl GlcNAc substrate). In kind it is biochemical.
Conditions: not given
As to the method: Assay for Determination of […] for Inhibition of O-GlcNAcase Activity
Experimental procedure for kinetic analyses: Enzymatic reactions were carried out in a reaction containing 50 mM NaH2PO4, 100 mM NaCl and 0.1% BSA (pH 7.0) using 2 mM 4-Methylumbelliferyl N-acetyl-β-D-glucosaminide dihydrate (Sigma M2133) dissolved in ddH2O, as a substrate. The amount of purified human O-GlcNAcase enzyme used in the reaction was 0.7 nM. Test compound of varying concentrations was added to the enzyme prior to initiation of the reaction. The reaction was performed at room temperature in a 96-well plate and was initiated with the addition of substrate. […] The slope of product production was determined for each concentration of compound tested and plotted, using standard curve fitting algorithms for sigmoidal dose response curves. The values for a four parameter logistic curve fit of the data were determined.
As to `CCNC1=N[C@@H]2[C@@H](O)[C@H](O)[C@@H](C(=O)N(C)C)O[C@@H]2S1` [Example 51, (3aR,5S,6S,7R,7aR)-2-(ethylamino)-6,7-dihydroxy-N,N-dimethyl-5,6,7,7a-tetrahydro-3aH-pyrano[3,2-d]thiazole-5-carboxamide], the Ki was found to be 1880 nM.

As to `CCNC1=N[C@@H]2[C@@H](O)[C@H](O)[C@@H](C(=O)N(C)OC)O[C@@H]2S1` [Example 47, (3aR,5S,6S,7R,7aR)-2-(ethylamino)-6,7-dihydroxy-N-methoxy-N-methyl-5,6,7,7a-tetrahydro-3aH-pyrano[3,2-d]thiazole-5-carboxamide], the Ki amounted to 3320 nM.

Staying with this experiment, now noted: purified human O-GlcNAcase 0.7 nM, 2 mM substrate, pH 7.0, room temperature; Cheng-Prusoff; read-out: Ki.
As for `C=C(C)[C@H]1O[C@@H]2SC(N(C)C)=N[C@@H]2[C@@H](O)[C@@H]1O` [Example 16, (3aR,5R,6S,7R,7aR)-2-(dimethylamino)-5-(prop-1-en-2-yl)-5,6,7,7a-tetrahydro-3aH-pyrano[3,2-d]thiazole-6,7-diol], the Ki was 21 nM. The same measure, in the same setting: the result for `COc1ccc(C/C=C(/[C@H]2O[C@@H]3SC(N(C)C)=N[C@@H]3[C@@H](O)[C@@H]2O)C(F)(F)F)cc1` (single isomer, unassigned) [Example 4] reads 16.2 nM; that for `CNC1=N[C@@H]2[C@@H](O)[C@H](O)[C@@H](CCl)O[C@@H]2S1` [Example 39, (3aR,5 S,6S,7R,7aR)-5-(chloromethyl)-2-(methylamino)-5,6,7,7a-tetrahydro-3aH-pyrano[3,2-d]thiazole-6,7-diol], 0.075 nM; that for `CNCC[C@H]1O[C@@H]2SC(NC)=N[C@@H]2[C@@H](O)[C@@H]1O` [Example 41, (3aR,5R,6S,7R,7aR)-2-(methylamino)-5-(2-(methylamino)ethyl)-5,6,7,7a-tetrahydro-3aH-pyrano[3,2-d]thiazole-6,7-diol], 8.4 nM.

In the case of `CNC1=N[C@@H]2[C@@H](O)[C@H](O)[C@@H](C(=O)O)O[C@@H]2S1` [Example 36, (3aR,5S,6S,7R,7aR)-6,7-dihydroxy-2-(methylamino)-5,6,7,7a-tetrahydro-3aH-pyrano[3,2-d]thiazole-5-carboxylic acid], the Ki was determined as 5.5 nM.

For `COc1ccc(CC[C@H]([C@H]2O[C@@H]3SC(N(C)C)=N[C@@H]3[C@@H](O)[C@@H]2O)C(F)(F)F)cc1` [Example 1, (3aR,5R,6S,7R,7aR)-2-(dimethylamino)-5-((R)-1,1,1-trifluoro-4-(4-methoxyphenyl)butan-2-yI)-5,6,7,7a-tetrahydro-3aH-pyrano[3,2-d]thiazole-6,7-diol], the Ki was 109 nM. The same measure, in the same setting: with `CNC1=N[C@@H]2[C@@H](O)[C@H](O)[C@@H](CSCc3ccccc3)O[C@@H]2S1` [Example 61, (3aR,5S,6S,7R,7aR)-5-((benzylthio)methyl)-2-(methylamino)-5,6,7,7a-tetrahydro-3aH-pyrano[3,2-d]thiazole-6,7-diol] the figure was 4.1 nM; with `CNC1=N[C@@H]2[C@@H](O)[C@H](O)[C@@H](C(=O)NC(C)C)O[C@@H]2S1` [Example 43, (3aR,5S,6S,7R,7aR)-6,7-dihydroxy-N-isopropyl-2-(methylamino)-5,6,7,7a-tetrahydro-3aH-pyrano[3,2-d]thiazole-5-carboxamide], 588 nM; with `CN(C)C1=N[C@@H]2[C@@H](O)[C@H](O)[C@@H]([C@H](O)Cc3ccccc3)O[C@@H]2S1` [Example 20, (3aR,5R,6S,7R,7aR)-2-(dimethylamino)-5-((R)-1-hydroxy-2-phenylethyl)-5,6,7,7a-tetrahydro-3aH-pyrano[3,2-d]thiazole-6,7-diol], 736 nM. On the same count and under the same terms, with `CNC1=N[C@@H]2[C@@H](O)[C@H](O)[C@@H](C(=O)NC3CC3)O[C@@H]2S1` [Example 42, (3aR,5S,6S,7R,7aR)-N-cyclopropyl-6,7-dihydroxy-2-(methylamino)-5,6,7,7a-tetrahydro-3aH-pyrano[3,2-d]thiazole-5-carboxamide] the figure was 987 nM.

Usually Ki stands for a measure of affinity in units of concentration, obtained from inhibition or displacement.
